Data as given in patent US5674854A, “Inclusion complex of beta-cyclodextrin and diclofenac, its preparation and use” (Farmarc Nederland BV, priority 1993, dated 1997).

Columns and labels:
physchem = type: physicochemical; details: identical conditions (deionized water, room temperature, 24 hours); read-out: equilibrium solubility of diclofenac sodium in the absence of beta cyclodextrin
Protocol: The vial is sealed and placed in a laboratory shaker. The mixture is allowed to shake for 5 minutes and then equilibrated for 24 hours. The supernatant is filtered through a 0,22 micron filter and analyzed for diclofenac concentration by HPLC.

[1] = phase solubility analysis; cited from earlier work

solubility thermodynamic at 24 h (physchem) [µg/mL] | SMILES | effect of beta-cyclodextrin and hydroxyalkyl ether derivatives on aqueous solubility of diclofenac [1]
5000 | O=C(O)Cc1ccccc1Nc1c(Cl)cccc1Cl [diclofenac sodium] | –
– | O=C(O)Cc1ccccc1Nc1c(Cl)cccc1Cl [diclofenac, 2-[(2,6-dichlorophenyl)amino]benzeneacetic acid] | increase the aqueous solubility
